The values that follow come from EP0144809A2, “Complex platinum compounds of substituted 5,8-dihydroxy-1,4 naphtoquinones, process for their preparation and their use” (NATEC Institut für naturwissenschaftlich- technische …, priority 1983, dated 1985).

Molecules are shown by their SMILES.

The subject of the test is Ehrlich Ascites Tumor. The test can be described thus: Standard test with Ehrlich ascites tumor in ICR mice (antitumor activity). Particulars: Dose 6 mg Pt-Komplex pro kg, intraperitoneal on day 1 and day 6; Cure = animals that survived longer than 60 days; two groups (20 mice) for the control. It is filed as in vivo, ICR-Mäusen. The text has this: Zur Ermittlung der antikarzinogenen Aktivität der erfindungsgemäßen Platinkomplexverbindungen wurde der Standardtest mit dem Ehrlich Ascites Tumor an ICR-Mäusen angewendet. […] Die Tumorzellen sowie die Platinkomplexverbindungen wurden am Tag Null bzw. am 1. und 6. Tag intraperitonal injiziert. Die Resultate wurden in der nachstehenden Tabelle II zusammengestellt.
Der Terminus "Cure" wurde vom National Cancer Institute, USA, übernommen und bedeutet, wieviele Tiere länger als 60 Tage überlebt haben. Aus den Resultaten geht deutlich hervor, daß die erfindungsgemäßen Platinkomplexverbindungen gegenüber den bekannten Antitumormitteln der Vergleichsbeispiele 1 und 7 eine mindestens gleich gute, meist sogar deutlich bessere Antitumorwirkung zeigen.

Turning to `N.N.[Cl][Pt][Cl]` [Positive Kontrolle, cis-Dichloro-diamino-platin(II)], the “Anzahl der "Cures" pro Tiergruppe” value is on record as 4.
